Test results: patent US8889377B2, “GPCR comprising an IC2 insertion” (ConfometRx, Inc., priority 2010, dated 2014)

System: mGluR5 and Rock10 (mGluR5-T4 lysozyme fusion protein of FIG. 3)
Experiment: 3H-MPEP ligand binding in membranes of transfected HEK293 cells
Set-up: species or system human
Settings: HEK293 cell membranes; ^3H-MPEP radioligand; wild-type mGluR5 vs fusion protein Rock10 (FIG. 6)
Procedure: HEK293 cells were cultured on plastic dishes at 37° C. with 5% CO2 in Dulbecco's modified Eagle's medium (Cellgro) with 5% fetal bovine serum. For an individual expression experiment, cells at confluency were split, and approximately 100,000 cells were used to seed glass cover slips in the same medium. After 2 d, cells are transfected with the addition of 1 μg of a given pCDNA3-receptor plasmid and 3 μl of Fugene 6 reagent (Roche). 48 h after transfection, cells were harvested and membranes prepared for ligand binding analysis. ^3H-MPEP (a negative allosteric modulator that binds to the transmembrane domains of mGluR5) was used to detect functional mGluR5 in HEK293 cell membranes (see FIG. 6).

Q: For `Cc1cccc(C#Cc2ccccc2)n1` [MPEP], which “affinity of MPEP for mGluR5 compared with Rock10” value is on record?
A: same affinity for mGluR5 as Rock10
